Data as given in patent publication US8759481B2, “Peptide vaccines for cancers expressing tumor-associated antigens” (Oncotherapy Science, Inc., priority 2007, dated 2014).

Key:
Format in all cases: cell-based, human
[1] = tested on: peptide-pulsed T2 cells; assay: CTL line establishment, IFN-gamma ELISA; settings: HLA-A*0201, 9-mer peptides derived from INHBB; CTL lines/positive wells
In short: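 CTLs expanded with MMC-inactivated B-lymphoblastoid lines, 40 ng/ml anti-CD3 and IL-2 (120 IU/ml day 1, then 30 IU/ml on days 5, 8, 11). Peptide-pulsed T2 or A24-LCL stimulators (1×10^4/well) incubated with cultured wells or limiting-dilution clones as responders; IFN-gamma detected by ELISPOT (positive wells) and ELISA (established CTL lines).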

[2] = tested on: peptide-pulsed A24-LCL cells; assay: IFN-gamma ELISPOT assay (positive wells); settings: HLA-A*2402, 9-mer peptides derived from INHBB; positive/total wells
In short: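 PBMC-derived DCs from HLA-A*2402 and/or A*0201 donors, pulsed with 20 micro g/ml peptide plus 3 micro g/ml beta 2-microglobulin, stimulated autologous CD8+ T cells three times (days 0, 7, 14). On day 21, responders were tested against peptide-pulsed A24-LCL or T2 cells by IFN-gamma ELISPOT. Values are reported as positive wells/wells tested; CTL lines confirmed by ELISA.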

[3] = tested on: peptide-pulsed T2 cells; assay: IFN-gamma ELISPOT assay (positive wells); settings: HLA-A*0201, 9-mer peptides derived from INHBB; positive/total wells
In short: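 CD8+ T cells from HLA-A*2402 and/or HLA-A*0201 donors were stimulated 1:20 with autologous monocyte-derived DCs pulsed with 20 µg/ml peptide plus β2-microglobulin, in IL-7, with IL-2 added, restimulated on days 7 and 14. On day 21, IFN-γ ELISPOT against peptide-pulsed T2 or A24-LCL cells (1×10^4/well) scored wells as positive, with CTL lines confirmed by ELISA.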

[4] = tested on: CD8+ T cells (HLA-A*2402 donors); assay: In vitro CTL induction with peptide-pulsed DCs (positive donor number); settings: HLA-A*2402, 9-mer peptides derived from INHBB; positive/total donors
In short: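 Autologous CD8+ T cells from HLA-A*2402 and/or A*0201 donors stimulated with MMC-inactivated monocyte-derived DCs pulsed with 20 μg/ml peptide, at 1:20 DC:T with IL-7, then IL-2 (20 IU/ml); restimulated days 7 and 14. CTL tested day 21 on peptide-pulsed A24-LCL or T2 cells; reported as positive/total donors.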

Sequence: VQCDSCQEL
- positive CTL line [1]: 0/1
- positive well number [2]: 0/8
- positive well number [3]: 1/8
- positive donor number [4]: 0/1
